According to the supplement of paper PMC10307832:

Columns and labels:
Test in all cases: relative viability (nuclei count vs DMSO), 5 days (fraction); higher = more cells survive
[1] = compound: CC1=CC(=CC=C1)NC2=NC(=CS2)C3=CC=NC=C3 + C[C@@H](Oc1cc(-c2cnn(C3CCNCC3)c2)cnc1N)c1c(Cl)ccc(F)c1Cl [Crizotinib] (partner 1 µM)
In short: (§1)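 Medians of duplicate plates are given as relative viability. That measure is the nuclei count in treated wells divided by the count in vehicle wells. Counts were taken on 4× images of lung cancer cell lines in 1536-well plates, 5 days after pin-tool dosing the day after seeding with one drug alone or a fixed anchor-drug dose plus five library-drug doses (not always all listed) in √10 steps.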

[2] = compound: CC1=CC(=CC=C1)NC2=NC(=CS2)C3=CC=NC=C3 + Nc1nc2[nH]cc(CCc3ccc(C(=O)N[C@@H](CCC(=O)O)C(=O)O)cc3)c2c(=O)[nH]1 [Pemetrexed] (partner 0.2 µM)
In short: as §1

Masitinib + OSI-027 = compound: Cc1ccc(NC(=O)c2ccc(CN3CCN(C)CC3)cc2)cc1Nc1nc(-c2cccnc2)cs1 [Masitinib] + COc1cccc2cc(-c3nc([C@H]4CC[C@H](C(=O)O)CC4)n4ncnc(N)c34)[nH]c12 [OSI-027] (partner 0.5 µM)
In short: as §1

[3] = compound: CC1=CC(=CC=C1)NC2=NC(=CS2)C3=CC=NC=C3 + CCNC(=O)c1noc(-c2cc(C(C)C)c(O)cc2O)c1-c1ccc(CN2CCOCC2)cc1 [Luminespib] (partner 0.01 µM)
In short: as §1

| Cell Line | relative viability ([1]; first compound 0.08 µM) | relative viability ([1]; first compound 0.253 µM) | relative viability ([1]; first compound 0.8 µM) | relative viability ([1]; first compound 8 µM) | relative viability ([2]; first compound 0.253 µM) | relative viability ([2]; first compound 0.8 µM) | relative viability ([2]; first compound 2.53 µM) | relative viability ([2]; first compound 8 µM) | relative viability (Masitinib + OSI-027; first compound 0.01 µM) | relative viability (Masitinib + OSI-027; first compound 0.03162 µM) | relative viability (Masitinib + OSI-027; first compound 0.1 µM) | relative viability (Masitinib + OSI-027; first compound 0.3162 µM) | relative viability (Masitinib + OSI-027; first compound 1 µM) | relative viability ([3]; first compound 0.253 µM) | relative viability ([3]; first compound 0.8 µM) | relative viability ([3]; first compound 8 µM) | relative viability ([1]; first compound 2.53 µM) | relative viability ([2]; first compound 0.08 µM) | relative viability ([3]; first compound 0.08 µM) | relative viability ([3]; first compound 2.53 µM) |
| --- | --- | --- | --- | --- | --- | --- | --- | --- | --- | --- | --- | --- | --- | --- | --- | --- | --- | --- | --- | --- |
| LK-2 | 0.261 | 0.197 | 0.229 | 0.246 | 0.315 | 0.263 | 0.135 | 0.347 | 0.194 | 0.214 | 0.198 | 0.201 | 0.243 | 0.161 | 0.207 | 0.183 |  |  |  |  |
| LOU-NH91 | 0.706 | 0.759 | 0.717 | 0.693 | 0.391 | 0.348 | 0.366 | 0.366 | 0.702 | 0.667 | 0.723 | 0.58 | 0.655 | 0.351 | 0.33 | 0.314 | 0.728 | 0.38 | 0.319 | 0.297 |
| LU99A |  | 0.546 | 0.717 | 0.718 | 0.199 | 0.171 | 0.178 | 0.182 | 0.257 | 0.331 | 0.311 | 0.316 | 0.29 | 0.213 | 0.242 | 0.254 | 0.52 | 0.141 | 0.256 | 0.302 |
| LXF-289 | 0.775 | 0.785 | 0.827 | 0.751 | 0.924 | 0.708 | 0.871 | 0.792 | 0.747 | 0.963 | 0.794 | 0.861 | 0.767 | 0.649 | 0.573 | 0.69 | 0.836 | 0.851 | 0.655 | 0.646 |
| NCI-H23 | 0.417 | 0.469 | 0.474 | 0.526 | 0.447 | 0.66 | 0.582 | 0.778 | 0.49 | 0.572 | 0.617 | 0.575 | 0.559 | 0.184 | 0.208 | 0.22 | 0.531 | 0.629 | 0.208 | 0.221 |
| NCI-H322M | 0.846 | 0.808 | 0.775 | 0.834 | 0.576 | 0.608 | 0.615 | 0.624 | 0.64 | 0.531 | 0.605 | 0.551 | 0.514 | 0.893 | 0.924 | 0.982 | 0.859 | 0.564 | 0.76 | 0.961 |
| NCI-H358 | 0.509 | 0.576 | 0.562 | 0.512 | 0.19 | 0.175 | 0.176 | 0.166 | 0.85 | 0.762 | 0.859 | 0.665 | 0.731 | 0.605 | 0.305 | 0.231 | 0.542 | 0.153 | 0.286 | 0.436 |
| NCI-H441 | 0.751 | 0.831 | 0.791 | 0.663 | 0.265 | 0.246 | 0.255 | 0.255 | 0.654 | 0.628 | 0.798 | 0.717 | 0.429 | 0.328 | 0.411 | 0.384 | 0.69 | 0.265 | 0.411 | 0.391 |
| NCI-H460 | 0.753 | 0.827 | 0.913 | 0.811 | 0.0625 | 0.0614 | 0.0648 | 0.0687 | 0.796 | 0.705 | 0.674 | 0.558 | 0.522 | 0.0322 | 0.04 | 0.0349 | 1 | 0.0627 | 0.0315 | 0.0298 |
| NCI-H520 | 0.741 | 0.9 | 0.81 | 0.939 | 0.678 | 0.677 | 0.865 | 0.644 | 0.267 | 0.265 | 0.261 | 0.237 | 0.228 | 0.201 | 0.252 | 0.241 | 0.839 | 0.706 | 0.223 | 0.206 |
| NCI-H596 | 0.875 | 0.929 | 0.814 | 0.971 | 0.472 | 0.446 | 0.454 | 0.463 | 0.87 | 0.678 | 0.73 | 0.717 | 0.697 | 0.959 | 0.809 | 0.814 | 0.943 | 0.494 | 0.938 | 0.911 |
| NCI-H647 | 1.04 | 0.909 | 0.953 | 0.86 | 0.154 | 0.147 | 0.167 | 0.151 | 0.685 | 0.651 | 0.699 | 0.579 | 0.602 | 0.162 | 0.177 | 0.338 | 1.02 | 0.181 | 0.114 | 0.313 |
| NCI-H650 | 0.683 | 0.724 | 0.615 | 0.914 | 0.88 | 1.07 | 0.863 | 1.06 | 0.538 | 0.427 | 0.536 | 0.344 | 0.524 | 0.803 | 0.929 | 0.893 |  | 0.953 | 0.866 | 0.687 |
| NCI-H661 | 0.974 | 1 | 0.925 | 0.908 | 0.959 | 0.889 | 0.907 | 0.871 | 0.672 | 0.648 | 0.727 | 0.643 | 0.528 | 0.963 | 0.885 | 0.863 | 0.935 | 0.876 | 0.887 | 0.887 |
| NCI-H838 | 0.817 | 0.661 | 0.749 | 0.682 | 0.228 | 0.263 | 0.257 | 0.241 | 0.353 | 0.331 | 0.385 | 0.342 | 0.394 | 0.318 | 0.324 | 0.25 | 0.819 | 0.26 | 0.38 | 0.316 |
| NCI-H1355 | 1.02 | 0.781 | 0.705 | 0.61 | 0.778 | 0.791 | 0.75 | 0.692 | 0.345 | 0.359 | 0.42 | 0.345 | 0.37 | 0.583 | 0.375 | 0.502 | 0.701 | 0.866 | 0.64 | 0.477 |
| NCI-H1437 | 0.938 | 1.03 | 0.91 | 0.926 | 0.326 | 0.27 | 0.31 | 0.283 | 0.768 | 0.936 | 0.899 | 0.879 | 0.858 | 1.17 | 1.1 | 0.98 | 1.06 | 0.349 | 1.18 | 1.13 |
| NCI-H1563 | 0.958 | 0.916 | 0.887 | 0.86 | 0.739 | 0.717 | 0.742 | 0.881 | 0.741 | 0.717 | 0.781 | 0.738 | 0.705 | 0.546 | 0.546 | 0.541 | 0.909 | 0.744 | 0.488 | 0.506 |
| NCI-H1650 | 0.946 | 0.728 | 0.83 | 1.03 | 0.358 | 0.399 | 0.346 | 0.323 | 0.58 | 0.478 | 0.719 | 0.499 | 0.543 | 0.181 | 0.222 | 0.186 | 0.919 | 0.341 | 0.214 | 0.194 |
| NCI-H1651 | 0.854 | 0.869 | 0.897 | 0.897 | 0.604 | 0.648 | 0.498 | 0.598 | 0.735 | 0.656 | 0.695 | 0.824 | 0.706 | 0.893 | 0.875 | 0.74 | 0.851 | 0.55 | 1.16 | 0.706 |
| NCI-H1666 | 0.722 | 0.567 | 0.526 | 0.386 | 0.749 | 0.603 | 0.738 | 0.674 |  | 0.861 | 0.921 | 0.792 | 0.833 | 0.958 | 0.773 | 0.679 | 0.567 | 0.787 | 0.976 | 0.81 |
| NCI-H1734 | 0.665 | 0.667 | 0.635 | 0.622 | 0.421 | 0.409 | 0.44 | 0.371 | 0.668 | 0.625 | 0.599 | 0.568 | 0.544 | 0.22 | 0.22 | 0.191 | 0.653 | 0.374 | 0.203 | 0.192 |
| NCI-H1755 | 0.86 | 0.815 | 0.803 | 0.522 | 0.445 | 0.393 | 0.401 | 0.397 |  | 0.703 | 0.686 | 0.687 | 0.649 | 0.46 | 0.428 | 0.486 | 0.729 | 0.35 | 0.519 | 0.37 |
| NCI-H1792 | 0.99 | 0.767 | 0.886 | 0.947 | 0.682 | 0.651 | 0.67 | 0.784 | 0.762 | 0.402 | 0.71 | 0.563 | 0.9 | 0.407 | 0.375 | 0.351 | 0.815 | 0.453 | 0.305 | 0.326 |
| NCI-H1915 | 0.84 | 0.784 | 0.838 | 0.8 | 0.493 | 0.508 | 0.508 | 0.401 |  | 0.606 |  | 0.578 | 0.546 | 0.857 | 0.833 | 0.776 | 0.87 | 0.496 | 0.897 | 0.787 |
| NCI-H1944 | 1.08 | 0.98 | 0.973 | 0.948 | 0.6 | 0.636 | 0.654 | 0.476 |  | 0.423 |  | 0.352 | 0.382 | 0.771 | 0.792 | 0.72 | 1.01 | 0.543 | 0.674 | 0.654 |
| NCI-H1975 | 0.819 | 0.737 | 0.862 | 0.722 | 0.25 | 0.257 | 0.24 | 0.239 | 0.937 | 0.793 | 0.864 |  | 0.509 | 0.17 | 0.201 | 0.184 | 0.758 | 0.277 | 0.252 | 0.249 |
